Tests used:
Format in all cases: biochemical
[1] = target: T1, PAD4 (Homo sapiens, UniProt Q9UM07); assay: Inactivation kinetics, PAD4; conditions: for kinact/KI: a: single kobs determined, b: from a linear fit; for Fold PAD4 Selectivity: kinact/KI relative to least inhibited isozyme (1.0)
T1 construct: made in house
Summary of the method: (§1)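 PAD1, 2 or 4 (2.0 μM) or PAD3 (5.0 μM) preincubated at 37 °C with varying inhibitor in 50 mM HEPES, 10 mM CaCl2, 2 mM DTT, pH 7.6. Timed aliquots assayed 15 min with 10 mM BAEE (BAA for PAD3); citrulline quantified by COLDER.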

[2] = target: T2, PAD1 (Homo sapiens, UniProt Q9ULC6); assay: Inactivation kinetics, PAD1; conditions: for kinact/KI: a: single kobs determined, b: from a linear fit; for Fold PAD1 Selectivity: kinact/KI relative to least inhibited isozyme (1.0)
T2 construct: made in house
T2 sequence (Q9ULC6 1-663): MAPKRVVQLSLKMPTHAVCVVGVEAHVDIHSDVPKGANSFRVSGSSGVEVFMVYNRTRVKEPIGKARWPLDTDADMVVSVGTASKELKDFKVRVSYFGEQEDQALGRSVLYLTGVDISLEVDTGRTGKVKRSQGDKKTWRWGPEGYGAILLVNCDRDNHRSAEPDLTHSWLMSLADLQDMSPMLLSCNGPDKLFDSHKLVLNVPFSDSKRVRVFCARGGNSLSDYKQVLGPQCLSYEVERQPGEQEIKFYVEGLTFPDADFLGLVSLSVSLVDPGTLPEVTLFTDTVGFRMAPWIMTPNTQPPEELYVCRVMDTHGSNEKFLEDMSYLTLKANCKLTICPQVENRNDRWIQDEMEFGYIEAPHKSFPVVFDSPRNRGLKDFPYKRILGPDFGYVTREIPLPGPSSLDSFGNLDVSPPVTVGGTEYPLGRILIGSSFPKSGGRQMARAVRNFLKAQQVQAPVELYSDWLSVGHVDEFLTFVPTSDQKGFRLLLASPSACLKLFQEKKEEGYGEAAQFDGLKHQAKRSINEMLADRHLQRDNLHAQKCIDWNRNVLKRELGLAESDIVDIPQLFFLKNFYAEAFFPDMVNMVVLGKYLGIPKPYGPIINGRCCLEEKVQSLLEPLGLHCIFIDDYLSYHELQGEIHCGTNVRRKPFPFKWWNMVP
Summary of the method: as §1

[3] = target: T3, PAD3 (Homo sapiens, UniProt Q9ULW8); assay: Inactivation kinetics, PAD3; conditions: for kinact/KI: a: single kobs determined; for Fold PAD3 Selectivity: kinact/KI relative to least inhibited isozyme (1.0)
T3 construct: made in house
T3 sequence (Q9ULW8 1-664): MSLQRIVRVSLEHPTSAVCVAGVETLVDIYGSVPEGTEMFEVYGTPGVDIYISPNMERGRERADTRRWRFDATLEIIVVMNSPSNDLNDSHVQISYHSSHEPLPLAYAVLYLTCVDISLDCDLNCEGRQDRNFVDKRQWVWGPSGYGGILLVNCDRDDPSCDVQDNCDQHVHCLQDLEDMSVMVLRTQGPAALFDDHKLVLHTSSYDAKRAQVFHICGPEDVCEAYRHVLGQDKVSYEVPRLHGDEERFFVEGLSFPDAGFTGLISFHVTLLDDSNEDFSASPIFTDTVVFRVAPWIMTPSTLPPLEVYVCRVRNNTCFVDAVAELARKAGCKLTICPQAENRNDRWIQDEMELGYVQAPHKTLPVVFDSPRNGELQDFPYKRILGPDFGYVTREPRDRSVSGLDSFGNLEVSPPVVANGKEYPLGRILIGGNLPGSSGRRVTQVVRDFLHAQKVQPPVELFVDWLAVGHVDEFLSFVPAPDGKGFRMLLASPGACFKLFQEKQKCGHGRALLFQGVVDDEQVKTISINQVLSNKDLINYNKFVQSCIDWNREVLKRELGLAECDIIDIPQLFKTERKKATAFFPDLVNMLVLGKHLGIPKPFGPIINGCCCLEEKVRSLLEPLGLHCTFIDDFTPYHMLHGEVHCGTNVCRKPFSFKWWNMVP
Summary of the method: as §1

[4] = target: T4, PAD2 (Homo sapiens, UniProt Q9Y2J8); assay: Inactivation kinetics, PAD2; conditions: for kinact/KI: a: single kobs determined, b: from a linear fit, other footnotes: from kinact and KI; for Fold PAD2 Selectivity: kinact/KI relative to least inhibited isozyme (1.0); for Ki / kinact: PAD2, table footnote
T4 construct: made in house
Summary of the method: as §1

T4 sequence (Q9Y2J8 whole entry): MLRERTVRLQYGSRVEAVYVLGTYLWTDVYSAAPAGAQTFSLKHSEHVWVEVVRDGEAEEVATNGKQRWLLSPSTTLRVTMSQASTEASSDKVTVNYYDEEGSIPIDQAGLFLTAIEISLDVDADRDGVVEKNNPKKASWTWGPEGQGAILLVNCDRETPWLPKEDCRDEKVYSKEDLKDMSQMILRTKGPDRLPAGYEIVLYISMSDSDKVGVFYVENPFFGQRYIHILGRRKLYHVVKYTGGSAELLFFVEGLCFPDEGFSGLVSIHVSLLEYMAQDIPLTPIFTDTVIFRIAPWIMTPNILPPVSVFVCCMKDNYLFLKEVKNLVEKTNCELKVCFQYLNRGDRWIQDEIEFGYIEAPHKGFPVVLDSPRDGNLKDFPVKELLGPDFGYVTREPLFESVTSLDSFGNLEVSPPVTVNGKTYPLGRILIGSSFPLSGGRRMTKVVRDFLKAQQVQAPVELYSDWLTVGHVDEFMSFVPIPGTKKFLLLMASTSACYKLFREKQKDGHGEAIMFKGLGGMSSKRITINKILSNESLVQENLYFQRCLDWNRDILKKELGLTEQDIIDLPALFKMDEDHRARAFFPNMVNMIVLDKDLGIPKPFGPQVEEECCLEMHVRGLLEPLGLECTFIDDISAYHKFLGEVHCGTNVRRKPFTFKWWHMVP
T1 sequence (Q9UM07 whole entry): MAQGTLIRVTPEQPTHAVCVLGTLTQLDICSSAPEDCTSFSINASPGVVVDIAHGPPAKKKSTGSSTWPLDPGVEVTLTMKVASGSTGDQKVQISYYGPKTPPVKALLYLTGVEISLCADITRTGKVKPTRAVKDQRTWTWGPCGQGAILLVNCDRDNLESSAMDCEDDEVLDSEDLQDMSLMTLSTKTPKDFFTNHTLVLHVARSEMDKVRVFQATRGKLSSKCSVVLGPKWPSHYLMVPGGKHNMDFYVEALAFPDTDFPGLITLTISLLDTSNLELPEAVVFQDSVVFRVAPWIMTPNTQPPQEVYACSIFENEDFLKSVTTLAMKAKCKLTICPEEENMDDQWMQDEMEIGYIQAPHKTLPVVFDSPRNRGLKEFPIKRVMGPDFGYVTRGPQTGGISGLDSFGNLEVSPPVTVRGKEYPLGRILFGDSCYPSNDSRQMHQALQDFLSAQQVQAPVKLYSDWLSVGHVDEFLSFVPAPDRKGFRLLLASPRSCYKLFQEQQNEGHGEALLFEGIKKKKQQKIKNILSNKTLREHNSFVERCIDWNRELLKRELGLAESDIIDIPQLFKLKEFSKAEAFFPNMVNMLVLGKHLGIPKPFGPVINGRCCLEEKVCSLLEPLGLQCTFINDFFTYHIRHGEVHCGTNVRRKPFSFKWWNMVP

SMILES | kinact/KI [1] [M⁻¹ s⁻¹] | Fold PAD4 Selectivity [1] [fold] | kinact/KI [2] [M⁻¹ s⁻¹] | Fold PAD1 Selectivity [2] [fold] | kinact/KI [3] [M⁻¹ s⁻¹] | Fold PAD3 Selectivity [3] [fold] | kinact/KI [4] [M⁻¹ s⁻¹] | Fold PAD2 Selectivity [4] [fold] | Ki [4] [µM] | kinact [4] [s⁻¹]
CCN1Cc2cccc(C(=O)N[C@@H](CCCNC(=N)CCl)c3nc4ccccc4n3C)c2C1=O [Compound 8d, N1-(2-ethyl-3-oxoisoindoline)benzoyl-N5-(2-chloro-1-iminoethyl)-1-(1-methyl-benzo[d]imidazol-2-yl)-L-ornithine] | 75.7 | 1.2 | 1320 | 21 | 62.8 | 1.0 | 1190 | 19 | – | –
CCN1Cc2cccc(C(=O)N[C@@H](CCCNC(=N)CF)c3nc4ccccc4n3CC)c2C1=O [Compound 8e, N1-(2-ethyl-3-oxoisoindoline)benzoyl-N5-(2-fluoro-1-iminoethyl)-1-(1-ethyl-benzo[d]imidazol-2-yl)-L-ornithine] | 20.7 | 1.0 | 402 | 19 | 20.8 | 1.0 | 677 | 33 | – | –
CCN1Cc2cccc(C(=O)N[C@@H](CCCNC(=N)CCl)c3nc4ccccc4n3CC)c2C1=O [Compound 8f, N1-(2-ethyl-3-oxoisoindoline)benzoyl-N5-(2-chloro-1-iminoethyl)-1-(1-ethyl-benzo[d]imidazol-2-yl)-L-ornithine] | 54.2 | 1.0 | 952 | 18 | 114 | 2.1 | 752 | 14 | – | –
CCN1Cc2cccc(C(=O)N[C@@H](CCCNC(=N)CF)c3nc4ccccc4n3C(C)C)c2C1=O [Compound 8g, N1-(2-ethyl-3-oxoisoindoline)benzol-N5-(2-fluoro-1-iminoethyl)-1-(1-isopropyl-benzo[d]imidazol-2-yl)-L-ornithine] | 7.83 | 1.0 | 78.3 | 10 | 26.7 | 3.4 | 173 | 22 | – | –
CCN1Cc2cccc(C(=O)N[C@@H](CCCNC(=N)CCl)c3nc4ccccc4n3C(C)C)c2C1=O [Compound 8h, N1-(2-ethyl-3-oxoisoindoline)benzoyl-N5-(2-chloro-1-iminoethyl)-1-(1-isopropyl-benzo[d]imidazol-2-yl)-L-ornithine] | 40.5 | 1.0 | 448 | 11 | 80 | 2.0 | 277 | 6.8 | – | –
CCN1Cc2cccc(C(=O)N[C@@H](CCCNC(=N)CF)c3nc4c(OC)cccc4[nH]3)c2C1=O [Compound 8i, N1-(2-ethyl-3-oxoisoindoline)benzoyl-N5-(2-fluoro-1-iminoethyl)-1-(4-methoxy-1H-benzo[d]imidazol-2-yl)-L-ornithine] | 12.5 | 1.0 | 1340 | 107 | 153 | 12 | 396 | 32 | – | –
CCN1Cc2cccc(C(=O)N[C@@H](CCCNC(=N)CCl)c3nc4c(OC)cccc4[nH]3)c2C1=O [Compound 8j, N1-(2-ethyl-3-oxoisoindoline)benzoyl-N5-(2-chloro-1-iminoethyl)-1-(4-methoxy-1H-benzo[d]imidazol-2-yl)-L-ornithine] | 308 | 1.0 | 1530 | 5.0 | 313 | 1.0 | 720 | 2.3 | – | –
CCN1Cc2cccc(C(=O)N[C@@H](CCCNC(=N)CF)c3nc4c(OC)cccc4n3C)c2C1=O [Compound 8k, N1-(2-ethyl-3-oxoisoindoline)benzoyl-N5-(2-fluoro-1-iminoethyl)-1-(4-methoxy-1-methyl-benzo[d]imidazol-2-yl)-L-ornithine] | 71.7 | 1.0 | 1180 | 16 | 72 | 1.0 | 6090 | 85 | 5.3 | 0.0323

Now from value to compound:

kinact/KI [1] [M⁻¹ s⁻¹] | Fold PAD4 Selectivity [1] [fold] | kinact/KI [2] [M⁻¹ s⁻¹] | Fold PAD1 Selectivity [2] [fold] | kinact/KI [3] [M⁻¹ s⁻¹] | Fold PAD3 Selectivity [3] [fold] | kinact/KI [4] [M⁻¹ s⁻¹] | Fold PAD2 Selectivity [4] [fold] | Ki [4] [µM] | kinact [4] [s⁻¹] | SMILES
323 | 1.3 | 963 | 3.9 | 247 | 1.0 | 1240 | 5.0 | – | – | CCN1Cc2cccc(C(=O)N[C@@H](CCCNC(=N)CCl)c3nc4c(OC)cccc4n3C)c2C1=O [Compound 8l, N1-(2-ethyl-3-oxoisoindoline)benzoyl-N5-(2-chloro-1-iminoethyl)-1-(4-methoxy-1-methyl-benzo[d]imidazol-2-yl)-L-ornithine]
55.8 | 1.0 | 497 | 8.9 | 57.8 | 1.0 | 1430 | 26 | – | – | CCOc1cccc2c1nc([C@H](CCCNC(=N)CF)NC(=O)c1cccc3c1C(=O)N(CC)C3)n2C [Compound 8m, N1-(2-ethyl-3-oxoisoindoline)benzoyl-N5-(2-fluoro-1-iminoethyl)-1-(4-ethoxy-1-methyl-benzo[d]imidazol-2-yl)-L-ornithine]
25.2 | 1.0 | 302 | 12 | 138 | 5.5 | 1090 | 43 | – | – | CCOc1cccc2c1nc([C@H](CCCNC(=N)CCl)NC(=O)c1cccc3c1C(=O)N(CC)C3)n2C [Compound 8n, N1-(2-ethyl-3-oxoisoindoline)benzoyl-N5-(2chloro-1-iminoethyl)-1-(4-ethoxy-1-methyl-benzo[d]imidazol-2-yl)-L-ornithine]
68.3 | 3.8 | 842 | 47 | 17.8 | 1.0 | 2230 | 125 | 18.7 | 0.0417 | CCN1Cc2cccc(C(=O)N[C@@H](CCCNC(=N)CF)c3nc4cc(OC)ccc4n3C)c2C1=O [Compound 8o, N1-(2-ethyl-3-oxoisoindoline)benzoyl-N5-(2-fluoro-1-iminoethyl)-1-(5-methoxy-1-methyl-benzo[d]imidazol-2-yl)-L-ornithine]
31.7 | 1.0 | 1180 | 37 | 296 | 9.3 | 1020 | 32 | – | – | CCN1Cc2cccc(C(=O)N[C@@H](CCCNC(=N)CCl)c3nc4cc(OC)ccc4n3C)c2C1=O [Compound 8p, N1-(2-ethyl-3-oxoisoindoline)benzoyl-N5-(2-chloro-1-iminoethyl)-1-(5-methoxy-1-methyl-benzo[d]imidazol-2-yl)-L-ornithine]
70 | 2.6 | 858 | 32 | 26.7 | 1.0 | 1560 | 58 | – | – | COc1cccc2c1nc([C@H](CCCNC(=N)CF)NC(=O)c1cccc3c1C(=O)N(C(C)C)C3)n2C [Compound 8q]
